Patent US11166928B2, “Migraine prevention and treatment” (UNIVERSITATS-KINDERSPITAL, priority 2016, dated 2021)
“Also recorded” adds a separate entry of the source. Like-named read-outs stand apart in the source and are kept apart here.

Columns and labels:
migraine patients [1] = assay: Open-label pilot intervention: change in days with migraine from baseline (headache diary); assay type: in vivo, human
Excerpt: Patients diagnosed with medium-high frequency or chronic migraine according to International Headache Society Classification version 3 by an experienced neurologist were included. They were excluded if they had any significant other neurological, psychiatric or medical disorder. A minimum average of 6 migraine days/month was required during the last 3 months. Ten migraine patients (age range: 25-61 years, 1 male, attack frequency range: 6-24 migraine days/months) were included in the pilot study and randomly assigned to four conditions: 1) L-leucine (LL), 2) L-lysine (LY), 3) racemic βHB, 4) D-βHB. […]
(§1) Monthly migraine attack frequency was summarized over the last 3 months and the average was used for baseline comparison. Patients were either instructed to take 20 g βHB, 26 g LL or 26 g LY in two daily doses (one hour before breakfast and one hour before dinner, respectively) for the duration of 4 weeks. They were instructed to refrain from any other changes in medication or food habits for the duration of that period. The primary outcome measure was changes in days with migraines from baseline. Days with migraine were recorded using a mobile app (myheadache.ch) or a pen and paper diary and averaged across participants.
Those two chronic migraineurs (20 or 22 migraine days/month) where instructed to take 20 g racemic βHB daily for 4 weeks and after a 1 week washout period double the dose to 40 g βHB for the following 4 weeks. Migraine days were recorded for the duration of the intervention and patients were instructed to refrain from any other life-style or medication changes. The mean baseline attack frequency was 21 migraine days (SEM=1) and dropped to 11.5 days after 4 weeks of 20 g βHB daily and 6 days after 4 weeks of 40 g βHB daily (see FIG. 4 A). This preventive effect is roughly proportional to the increase in dose, with 20 g βHB leading to 46% reduction in migraine days from baseline (SEM=18.86) and 40 g βHB to a 72% reduction (SEM=12.95; see FIG. 4 B).
as §1, with “were” for “were either”, “10” for “20”, “racemic βHB” for “βHB, 26 g LL or 26 g LY in two daily doses (one hour before breakfast and one hour before dinner, respectively)”, “8 weeks, followed by one week wash-out period and then 8 weeks of 10 g D-βHB daily.” for “4 weeks.”

migraine patients [2] = assay: Tolerability, adverse events and palatability in the pilot experiments; assay type: in vivo, human
Excerpt: as §1, with “take” for “take 20 g βHB,”
as §1
as §1, with “were” for “were either”, “10” for “20”, “racemic βHB” for “βHB, 26 g LL or 26 g LY in two daily doses (one hour before breakfast and one hour before dinner, respectively)”, “8 weeks, followed by one week wash-out period and then 8 weeks of 10 g D-βHB daily.” for “4 weeks.”

[3] = design: species or system human; conditions: in vivo, po
Excerpt: Patients diagnosed with medium-high frequency or chronic migraine according to International Headache Society Classification version 3 by an experienced neurologist were included. They were excluded if they had any significant other neurological, psychiatric or medical disorder. A minimum average of 6 migraine days/month was required during the last 3 months. Ten migraine patients (age range: 25-61 years, 1 male, attack frequency range: 6-24 migraine days/months) were included in the pilot study and randomly assigned to four conditions: 1) L-leucine (LL), 2) L-lysine (LY), 3) racemic βHB, 4) D-βHB.
(§2) L-leucine (LL) and L-lysine (LY) are the two completely ketogenic amino acids. Via various steps, unused ketogenic amino acids (i.e. leucine or lysine) are metabolised into KB. While this is commonly known, to the best of our knowledge no data exists on the extent and time frame of such ketogenic amino acids to raise blood βHB levels. For the pharmacokinetics, four migraine patients were instructed to ingest either 13 g LL or 13 g LY on an empty stomach. Blood βHB and glucose concentrations were measured using a portable point-of-care blood ketone meter (Precision Xtra®) and matching test stripes at 5 points in time: 1) Baseline (directly before consumption), 2) 0.5 h after consumption, 3) 1 h after consumption, 4) 2 h after consumption, 5) 3 h after consumption and 6) 4 h after consumption. 13 g roughly correspond to the same number of particles (mmol) as 10 g βHB. Highest average concentrations of βHB were found after 2 and 3 h (mean=0.35 mmol/I; SEM=0.05) and remained levels to remain elevated for over 4 hours (see FIG. 1).
For determining pharmacokinetics, the patients were given 10 g racemic beta-hydroxybutyrate (βHB) orally dissolved in water in 3 different conditions: (1) post cibum (after meal) (2) ante cibum (before meal) (3) 1 hour before meal. Blood βHB and glucose concentrations were measured using a portable point-of-care blood ketone meter (Precision Xtra®) and matching test stripes at 5 points in time: 1) Baseline (directly before consumption), 2) 0.5 h after consumption, 3) 1 h after consumption, 4) 2 h after consumption, 5) 3 h after consumption and 6) 4 h after consumption. […] The levels dropped to near baseline after 2 hours.
Participants were given 10 g D-beta-hydroxybutyrate (βHB) orally dissolved in water in a fasted state. Blood βHB and glucose concentrations were measured using a portable point-of-care blood ketone meter (Precision Xtra®) and matching test stripes at 5 points in time: 1) Baseline (directly before consumption), 2) 0.5 h after consumption, 3) 1 h after consumption, 4) 2 h after consumption, 5) 3 h after consumption and 6) 4 h after consumption (see FIG. 5A). As with racemic βHB, highest average concentrations of βHB were found after approximately 1 h (mean=1.94 mmol/I; SEM=0.48).

[4] = Blood glucose levels after a single oral dose, measured at the same time as βHB; assay type: in vivo, human; conditions: 10 g single oral dose, ante cibum/fasted
Excerpt: as §2, with “13 g roughly correspond to the same number of particles (mmol) as 10 g βHB. Highest average concentrations of βHB were found after 2 and 3 h (mean=0.35 mmol/I; SEM=0.05) and remained levels to remain elevated for over 4 hours (see FIG. 1).” left out
For determining pharmacokinetics, the patients were given 10 g racemic beta-hydroxybutyrate (βHB) orally dissolved in water in 3 different conditions: (1) post cibum (after meal) (2) ante cibum (before meal) (3) 1 hour before meal. Blood βHB and glucose concentrations were measured using a portable point-of-care blood ketone meter (Precision Xtra®) and matching test stripes at 5 points in time: 1) Baseline (directly before consumption), 2) 0.5 h after consumption, 3) 1 h after consumption, 4) 2 h after consumption, 5) 3 h after consumption and 6) 4 h after consumption. […]

migraine patients [5] = assay: Tolerability, adverse events and palatability in the pilot experiments; assay type: in vivo, human; conditions: 40 g daily, 4 weeks; 2 patients
[6] = 10 g daily, 8 weeks, 2 patients, mean baseline 13.5 days

CC(O)CC(=O)O (racemic) [racemic βHB, beta-hydroxybutyric acid]
Average reduction in migraine days compared to baseline (migraine patients [1]; 10 g daily, 8 weeks, 2 high-frequency migraineurs (17 and 10 migraine days/month)): 18.5%
Mean migraine days after intervention (migraine patients [1]; [6]): 11 days
Average reduction in migraine days compared to baseline (migraine patients [1]; 20 g daily in two doses, 4 weeks, 4 medium-high frequency migraineurs (6-22 migraine days/month)): 51%
Reduction in migraine days from baseline (migraine patients [1]; 20 g daily, 4 weeks, 2 chronic migraineurs (20 or 22 migraine days/month)): 46%
Mean migraine days after intervention (migraine patients [1]; 20 g daily, 4 weeks, 2 chronic migraineurs, mean baseline 21 migraine days): 11.5 days
Mean migraine days after intervention (migraine patients [1]; 20 g daily, 4 weeks, mean baseline 16.25 days): 8 days
Range of reduction in migraine days compared to baseline (migraine patients [1]; 20 g daily, 4 weeks, range across patients): 25-80%
Mean migraine days after intervention (migraine patients [1]; 40 g daily, 4 weeks, 2 chronic migraineurs, mean baseline 21 migraine days): 6 days
Adverse events / tolerability (migraine patients [2]; 20 g daily, 4 weeks, 5 patients): severe nausea and vertigo; also recorded: gastrointestinal upset; also recorded: problematic
Half-life of blood βHB elevation (in words) ([3]; human): very short
Time after which blood βHB levels dropped back to (near) baseline ([3]; human): 2 h
Time of highest average βHB concentration ([3]; human): approximately 1 h
Peak blood βHB level relative to LL [3]: approximately double
Change in blood glucose levels after consumption [4]: substantial drop; also recorded: drop in blood glucose
Side-effects at increased dose (migraine patients [5]): increased side-effects further in both patients; also recorded: exacerbated the side-effects

CC(O)CC(=O)O (racemic) [βHB, beta-hydroxybutyric acid]
Median migraine days after the intervention (migraine patients [1]; 20 g daily, 4 weeks, median at baseline 18): 7 migraine days
Tolerability (in words) (migraine patients [2]; in comparison to the ketogenic amino acids, dose and isomer not stated): well tolerated

CC(O)CC(=O)O [D-βHB, D beta-hydroxybutyric (βHB) acid]
Mean migraine days after intervention (migraine patients [1]; [6]): 4.25 days
Side-effects / tolerability (migraine patients [2]; 10 g daily, 8 weeks (2 months), 2 patients): No side-effects; also recorded: much better tolerated; also recorded: fewer gastrointestinal side-effects
Time of highest average βHB concentration [3]: approximately 1 h
Change in blood glucose levels after consumption [4]: completely stable; also recorded: does not seem to lead to a potentially unwanted drop in blood glucose levels; also recorded: no concomitant drop in blood glucose

CC(C)C[C@H](N)C(=O)O [LL, L-leucine, reference compound]
Adverse events / tolerability (migraine patients [2]; 26 g daily (13 g twice a day)): diarrhoea or nausea
Time of highest average βHB concentration ([3]; human): 2 and 3 h

NCCCC[C@H](N)C(=O)O [LY, L-lysine, reference compound]
Adverse events / tolerability (migraine patients [2]; 26 g daily (13 g twice a day)): diarrhoea or nausea
